# Data published in ChEMBL document CHEMBL4619814, “Identification and Development of 1,4-Diaryl-1,2,3-triazolo-Based Ureas as Novel FLT3 Inhibitors” (ACS Med Chem Lett, 2020).
# Activity calls are given as the source filed them. No cut-off for these calls is given here.
# How the values were obtained:
# [1] = biological target: T1, Receptor-type tyrosine-protein kinase FLT3 (Homo sapiens, UniProt P36888, ITD); type: cell-based, Sf9
# [2] = biological target: T1, Receptor-type tyrosine-protein kinase FLT3
# Description: Binding affinity to recombinant human FLT3 ITD mutant expressed in bacterial expression system by Kinomescan method
# [3] = biological target: Receptor-type tyrosine-protein kinase FLT3 (Homo sapiens, UniProt P36888, D835V/ITD)
# Description: Binding affinity to recombinant human FLT3 ITD/D835V double mutant expressed in bacterial expression system by Kinomescan method
# [4] = biological target: Receptor-type tyrosine-protein kinase FLT3 (Homo sapiens, UniProt P36888, F691L/ITD)
# Description: Binding affinity to recombinant human FLT3 ITD/F691L double mutant expressed in bacterial expression system by Kinomescan method
# [5] = system: Receptor-type tyrosine-protein kinase FLT3 (Homo sapiens), P36888 [UNDEFINED MUTATION]; assay: Inhibition of FLT3 ITD mutant expressed in human MV4-11 cells assessed as reduction in STAT5 level at 4 nM incubated for 6 hrs by Western blot analysis; type: cell-based
# MV4-11 [6] = assay: Induction of cell cycle arrest in human MV4-11 cells assessed as G0/G1 phase at 4 nM incubated for 48 hrs by propidium iodide staining based flow cytometry analysis (reference value: 54.82 %); type: functional
# MV4-11 [7] = assay: Induction of cell cycle arrest in human MV4-11 cells assessed as S phase at 4 nM incubated for 48 hrs by propidium iodide staining based flow cytometry analysis (reference value: 20.14 %); type: functional
# MV4-11 [8] = assay: Induction of cell cycle arrest in human MV4-11 cells assessed as S phase at 20 nM incubated for 48 hrs by propidium iodide staining based flow cytometry analysis (reference value: 20.14 %); type: functional
# MV4-11 [9] = assay: Induction of cell cycle arrest in human MV4-11 cells assessed as S phase at 100 nM incubated for 48 hrs by propidium iodide staining based flow cytometry analysis (reference value: 20.14 %); type: functional
# MV4-11 [10] = assay: Induction of cell cycle arrest in human MV4-11 cells assessed as G2/M phase at 100 nM incubated for 48 hrs by propidium iodide staining based flow cytometry analysis (reference value: 24.88 %); type: functional
# MV4-11 [11] = assay: Induction of apoptosis in human MV4-11 cells assessed as viable cells at 4 nM incubated for 48 hrs by annexin V and 7-AAD staining based flow cytometry analysis (reference value: 90.47 %); type: functional; details: MV4-11, 48 h, read-out: Activity
# MV4-11 [12] = assay: Induction of apoptosis in human MV4-11 cells assessed as early apoptotic cells at 4 nM incubated for 48 hrs by annexin V and 7-AAD staining based flow cytometry analysis (reference value: 6.36 %); type: functional
# MV4-11 [13] = assay: Induction of apoptosis in human MV4-11 cells assessed as necrotic cells at 4 nM incubated for 48 hrs by annexin V and 7-AAD staining based flow cytometry analysis (reference value: 0.91 %); type: functional
# MV4-11 [14] = assay: Induction of apoptosis in human MV4-11 cells assessed as early apoptotic cells at 20 nM incubated for 48 hrs by annexin V and 7-AAD staining based flow cytometry analysis (reference value: 6.36 %); type: functional
# MV4-11 [15] = assay: Induction of apoptosis in human MV4-11 cells assessed as late apoptotic cells at 20 nM incubated for 48 hrs by annexin V and 7-AAD staining based flow cytometry analysis (reference value: 2.25 %); type: functional
# MV4-11 [16] = assay: Induction of apoptosis in human MV4-11 cells assessed as necrotic cells at 20 nM incubated for 48 hrs by annexin V and 7-AAD staining based flow cytometry analysis (reference value: 0.91 %); type: functional
# MV4-11 [17] = assay: Induction of apoptosis in human MV4-11 cells assessed as necrotic cells at 100 nM incubated for 48 hrs by annexin V and 7-AAD staining based flow cytometry analysis (reference value: 0.91 %); type: functional
# MV4-11 [18] = assay: Induction of cell cycle arrest in human MV4-11 cells assessed as reduction in CDK2 expression at 0.16 to 100 nM by Western blot analysis; type: functional, cell-based
# MV4-11 [19] = assay: Induction of cell cycle arrest in human MV4-11 cells assessed as reduction in CDK4 expression at 0.16 to 100 nM by Western blot analysis; type: functional, cell-based
# MV4-11 [20] = assay: Induction of cell cycle arrest in human MV4-11 cells assessed as reduction in Cyclin E expression at 0.16 to 100 nM by Western blot analysis; type: functional, cell-based
# [21] = AUC in Sprague-Dawley rat at 5 mg/kg, iv; type: ADME, organism-based; details: in vivo
# [22] = Cmax in Sprague-Dawley rat at 5 mg/kg, iv; type: ADME, organism-based; parameters: dose 5 mg/kg, route intravenous; details: in vivo
# [23] = Cmax in Sprague-Dawley rat at 25 mg/kg, po; type: ADME, organism-based; parameters: dose 25 mg/kg, route oral; details: in vivo
# [24] = Half life in Sprague-Dawley rat at 25 mg/kg, po; type: ADME, organism-based; details: in vivo
# [25] = Toxicity in CB17-SCID mouse xenografted with human MV4-11 cells assessed as side effects at 10 to 40 mg/kg, po administered for 10 days and observed on day 10; type: organism-based; details: in vivo, 240 h
# [26] = biological target: Mast/stem cell growth factor receptor Kit (Homo sapiens, UniProt P10721)
# Description: Binding affinity to recombinant human KIT (571 to 972 residues) expressed in bacterial expression system by Kinomescan method
# [27] = biological target: Proto-oncogene tyrosine-protein kinase receptor Ret (Homo sapiens, UniProt P07949)
# Description: Binding affinity to recombinant human RET (713 to 1014 residues) expressed in bacterial expression system by Kinomescan method
# [28] = system: Receptor-type tyrosine-protein kinase FLT3 (Homo sapiens), P36888 [UNDEFINED MUTATION]; details: MV4-11
# Description: Inhibition of FLT3 ITD mutant expressed in human MV4-11 cells assessed as reduction in cell growth incubated for 72 hrs by CCK8 assay
# U-937 = assay: cells; details: Homo sapiens, U-937, 72 h
# Description: Cytotoxicity against human U937 cells assessed as reduction in cell viability incubated for 72 hrs by CCK8 assay
# NB-4 = assay: cells; details: Homo sapiens, NB-4, 72 h
# Description: Cytotoxicity against human NB4 cells assessed as reduction in cell viability incubated for 72 hrs by CCK8 assay
# Mast/stem cell growth factor receptor Kit, sequence (P10721 whole entry): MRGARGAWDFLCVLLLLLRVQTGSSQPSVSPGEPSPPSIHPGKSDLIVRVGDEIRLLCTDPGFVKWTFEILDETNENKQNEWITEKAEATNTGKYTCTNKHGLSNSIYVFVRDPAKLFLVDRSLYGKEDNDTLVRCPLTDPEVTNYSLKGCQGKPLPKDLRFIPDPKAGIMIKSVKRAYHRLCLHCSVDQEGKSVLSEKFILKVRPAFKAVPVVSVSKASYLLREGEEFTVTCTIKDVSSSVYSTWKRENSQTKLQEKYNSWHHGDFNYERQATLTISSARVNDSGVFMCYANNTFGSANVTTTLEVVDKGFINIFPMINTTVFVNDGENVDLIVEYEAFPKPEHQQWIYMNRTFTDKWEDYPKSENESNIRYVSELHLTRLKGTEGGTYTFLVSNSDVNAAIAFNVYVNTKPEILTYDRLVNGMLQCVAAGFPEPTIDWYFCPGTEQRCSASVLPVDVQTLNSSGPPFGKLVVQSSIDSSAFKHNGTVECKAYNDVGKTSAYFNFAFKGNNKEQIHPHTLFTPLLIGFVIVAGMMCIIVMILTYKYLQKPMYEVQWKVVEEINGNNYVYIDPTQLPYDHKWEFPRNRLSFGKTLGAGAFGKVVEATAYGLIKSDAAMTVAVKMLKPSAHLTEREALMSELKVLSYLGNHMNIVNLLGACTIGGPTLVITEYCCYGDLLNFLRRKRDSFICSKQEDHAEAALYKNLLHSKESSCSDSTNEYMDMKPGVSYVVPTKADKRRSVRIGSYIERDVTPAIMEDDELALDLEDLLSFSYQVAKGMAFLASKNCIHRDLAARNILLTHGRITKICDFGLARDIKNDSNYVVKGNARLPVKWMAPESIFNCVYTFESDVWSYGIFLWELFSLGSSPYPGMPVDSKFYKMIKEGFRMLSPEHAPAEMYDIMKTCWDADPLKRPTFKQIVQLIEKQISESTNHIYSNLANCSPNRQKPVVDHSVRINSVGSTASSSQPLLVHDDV
# Proto-oncogene tyrosine-protein kinase receptor Ret, sequence (P07949 whole entry): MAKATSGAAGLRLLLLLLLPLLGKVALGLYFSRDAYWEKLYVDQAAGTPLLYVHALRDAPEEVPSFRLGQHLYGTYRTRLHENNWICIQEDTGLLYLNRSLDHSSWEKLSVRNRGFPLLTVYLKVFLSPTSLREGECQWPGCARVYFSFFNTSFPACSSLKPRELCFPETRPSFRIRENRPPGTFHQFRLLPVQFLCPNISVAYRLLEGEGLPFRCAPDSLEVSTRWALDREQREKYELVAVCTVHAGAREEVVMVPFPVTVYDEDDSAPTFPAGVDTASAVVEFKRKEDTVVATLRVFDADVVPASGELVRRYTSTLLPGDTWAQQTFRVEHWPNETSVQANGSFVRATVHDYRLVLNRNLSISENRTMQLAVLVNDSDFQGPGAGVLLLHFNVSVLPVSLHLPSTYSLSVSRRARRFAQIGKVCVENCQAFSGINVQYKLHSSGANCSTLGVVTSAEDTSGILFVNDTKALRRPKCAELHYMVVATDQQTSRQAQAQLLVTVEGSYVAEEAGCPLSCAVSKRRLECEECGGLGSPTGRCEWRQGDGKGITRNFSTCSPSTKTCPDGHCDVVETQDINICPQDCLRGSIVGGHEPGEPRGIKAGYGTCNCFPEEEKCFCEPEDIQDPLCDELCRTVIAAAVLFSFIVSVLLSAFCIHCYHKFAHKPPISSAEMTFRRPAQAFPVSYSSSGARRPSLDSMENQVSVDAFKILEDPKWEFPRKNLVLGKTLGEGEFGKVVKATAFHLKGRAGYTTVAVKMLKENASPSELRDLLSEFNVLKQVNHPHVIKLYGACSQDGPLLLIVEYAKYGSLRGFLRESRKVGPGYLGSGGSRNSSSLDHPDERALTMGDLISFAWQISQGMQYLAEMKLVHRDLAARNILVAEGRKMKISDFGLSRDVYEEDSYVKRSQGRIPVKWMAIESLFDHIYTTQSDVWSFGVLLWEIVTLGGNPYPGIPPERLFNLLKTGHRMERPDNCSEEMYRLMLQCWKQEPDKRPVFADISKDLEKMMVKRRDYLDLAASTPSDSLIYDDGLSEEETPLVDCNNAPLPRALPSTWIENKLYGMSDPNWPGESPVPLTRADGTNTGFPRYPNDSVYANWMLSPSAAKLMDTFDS
smiles,measurement,setting,value
CC(C)(C)c1cc(NC(=O)Nc2ccc(-c3cn(-c4ccc(OCCN5CCOCC5)cc4Cl)nn3)cc2)no1,IC50,[1],32.8 nM
same,Kd,[2],6.9 nM
same,Kd,[3],10000 nM
same,Kd,[4],2400 nM
same,inhibition,[5],Active
same,Activity,MV4-11 [6],66.16%
same,Activity,MV4-11 [7],15.39%
same,Activity,MV4-11 [8],5.68%
same,Activity,MV4-11 [9],4.98%
same,Activity,MV4-11 [10],5.11%
same,viability at 0.004 µM,MV4-11 [11],88.7%
same,Activity,MV4-11 [12],7.51%
same,Activity,MV4-11 [13],1.15%
same,Activity,MV4-11 [14],10.62%
same,Activity,MV4-11 [15],4.31%
same,Activity,MV4-11 [16],1.09%
same,Activity,MV4-11 [17],3.25%
same,Activity,MV4-11 [18],Active
same,Activity,MV4-11 [19],Active
same,Activity,MV4-11 [20],Active
same,AUC,[21],21200 ng·h/mL
same,Cmax,[22],6850 ng/mL
same,Cmax,[23],3220 ng/mL
same,half-life,[24],6.77 h
same,Activity,[25],Non-Toxic
same,Kd,[26],21 nM
same,Kd,[27],24 nM
same,GI50,[28],3 nM
same,GI50,U-937,> 3000 nM
same,GI50,NB-4,> 3000 nM
